This is an account of results in US8173689B2 (Novartis AG, priority 2006, dated 2012).

Where two headings read alike, the source gives them in different places.

One may read the inhibition as the relative decrease from the control value, in per cent.

For assay [1], the target named is T1, full-length human CSF-1R receptor (Homo sapiens, UniProt P07333).
T1 construct: transfected with the full-length human CSF-1R receptor cloned in house; expressed in transfected cells; host or cells: HEK293H (Invitrogen Cat. #11631017)
Description: In vitro inhibition of CSF-1R receptor tyrosine phosphorylation in transfected HEK293H cells stimulated with MCSF. The assay is classed as cell-based. Particulars: tested at about 1 μM; for inhibition at 1 µM: HEK293-H, read-out: pCSF1R percent inhibition. How it is done: The lysate was then transferred to total CSF-1R antibody coated 96-well plates that had already been blocked with 3% Blocker A from Mesoscale discovery (MSD) for 2 hours and washed afterwards. Lysates were incubated overnight at 4° C. and the plates were then washed 4× with MSD Tris Wash Buffer. […] The plates were read on the Sector 6000 instrument (MSD). Raw data was imported in Abase and EC50s calculated with XL-fit data analysis software.

Assay [2] has as its target T2, cytoplasmic domain of the human CSF-1R (Homo sapiens, UniProt P07333).
T2 construct: Recombinant protein corresponding to the cytoplasmic domain of the human CSF-1R; purchased Invitrogen Corporation, Carlsbad, Calif; PV3249
T2 sequence (P07333 539-972 limits assumed): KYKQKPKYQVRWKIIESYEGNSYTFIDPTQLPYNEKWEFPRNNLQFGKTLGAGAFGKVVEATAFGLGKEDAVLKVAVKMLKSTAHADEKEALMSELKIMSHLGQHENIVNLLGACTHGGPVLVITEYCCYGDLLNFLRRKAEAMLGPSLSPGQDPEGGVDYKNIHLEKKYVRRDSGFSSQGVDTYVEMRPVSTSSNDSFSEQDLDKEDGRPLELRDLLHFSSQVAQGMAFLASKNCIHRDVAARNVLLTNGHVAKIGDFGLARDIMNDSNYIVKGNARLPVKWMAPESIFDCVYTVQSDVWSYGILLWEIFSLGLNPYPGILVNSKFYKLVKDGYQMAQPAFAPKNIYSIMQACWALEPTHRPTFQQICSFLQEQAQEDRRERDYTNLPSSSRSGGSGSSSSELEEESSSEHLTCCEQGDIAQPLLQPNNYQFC
Description: In vitro kinase assay for colony stimulating factor-1 receptor (AlphaScreen). The assay is classed as biochemical. Particulars: tested at about 1 μM; for inhibition at 1 µM: read-out: CSF-1R percent inhibition. In outline:
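AlphaScreen read-out (PT66 anti-pTyr acceptor beads, streptavidin donor beads, overnight incubation) measured phosphorylated peptide product. The product was formed by the human CSF-1R cytoplasmic domain at 4 nM with 1 µM ATP in Mg2+/Mn2+ HEPES buffer, pH 7.5. Compound dilution series were 3-fold, starting at 25 µM.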

Another assay deals with T3, kinase domain of cKIT (Homo sapiens, UniProt P10721).
T3 construct: The kinase domain of cKIT was assayed in 50 mM Hepes; purchased Upstate 14-559
Description: Inhibition of cKIT kinase signaling in an in vitro biochemical assay (alphascreen). Particulars: tested at about 1 μM; for inhibition at 1 µM: read-out: cKit percent inhibition. (Alpha assays give light when donor and acceptor beads are brought close together.)

Another assay has as its target T4, kinase domain of PDGFRβ (Homo sapiens, UniProt P09619).
T4 construct: The kinase domain of PDGFRβ was assayed in 50 mM Hepes; purchased Invitrogen P3082
Briefly: Inhibition of PDGFRb kinase signaling in an in vitro biochemical assay (alphascreen). Particulars: tested at about 1 μM; for inhibition at 1 µM: read-out: PDGFRβ percent inhibition.

In assay [3] the test system is MNFS60 (murine AML cells). Description: Cell viability assay in MCSF dependent MNFS60 cells (Cell Titer Glo). It is filed as cell-based. Particulars: tested at about 1 μM; for inhibition at 1 µM: Mus musculus, read-out: M-NFS-60 CP percent inhibition. An outline of the steps: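 MNFS60 cells grown with 10 ng/ml MCSF (final) were exposed for 72 hrs at 37° C., 5% CO2 to 3-fold serial compound dilutions. Viable cells were measured by Cell Titer Glo luminescence, in triplicate, and EC50s were derived by curve fitting.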
(Cellular ATP, detected with luciferase, serves as a proxy for viable cell number.)

T4 sequence (P09619 600-962 limits assumed): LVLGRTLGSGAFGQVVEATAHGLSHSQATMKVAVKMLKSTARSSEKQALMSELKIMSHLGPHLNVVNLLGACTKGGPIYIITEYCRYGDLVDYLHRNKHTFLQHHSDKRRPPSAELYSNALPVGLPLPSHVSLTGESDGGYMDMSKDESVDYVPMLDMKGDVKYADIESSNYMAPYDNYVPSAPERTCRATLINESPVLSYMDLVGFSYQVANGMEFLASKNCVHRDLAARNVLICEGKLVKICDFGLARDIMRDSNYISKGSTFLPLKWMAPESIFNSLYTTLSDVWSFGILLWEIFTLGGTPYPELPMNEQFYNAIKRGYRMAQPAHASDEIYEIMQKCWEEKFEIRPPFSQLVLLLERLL
T1 sequence (P07333 20-972): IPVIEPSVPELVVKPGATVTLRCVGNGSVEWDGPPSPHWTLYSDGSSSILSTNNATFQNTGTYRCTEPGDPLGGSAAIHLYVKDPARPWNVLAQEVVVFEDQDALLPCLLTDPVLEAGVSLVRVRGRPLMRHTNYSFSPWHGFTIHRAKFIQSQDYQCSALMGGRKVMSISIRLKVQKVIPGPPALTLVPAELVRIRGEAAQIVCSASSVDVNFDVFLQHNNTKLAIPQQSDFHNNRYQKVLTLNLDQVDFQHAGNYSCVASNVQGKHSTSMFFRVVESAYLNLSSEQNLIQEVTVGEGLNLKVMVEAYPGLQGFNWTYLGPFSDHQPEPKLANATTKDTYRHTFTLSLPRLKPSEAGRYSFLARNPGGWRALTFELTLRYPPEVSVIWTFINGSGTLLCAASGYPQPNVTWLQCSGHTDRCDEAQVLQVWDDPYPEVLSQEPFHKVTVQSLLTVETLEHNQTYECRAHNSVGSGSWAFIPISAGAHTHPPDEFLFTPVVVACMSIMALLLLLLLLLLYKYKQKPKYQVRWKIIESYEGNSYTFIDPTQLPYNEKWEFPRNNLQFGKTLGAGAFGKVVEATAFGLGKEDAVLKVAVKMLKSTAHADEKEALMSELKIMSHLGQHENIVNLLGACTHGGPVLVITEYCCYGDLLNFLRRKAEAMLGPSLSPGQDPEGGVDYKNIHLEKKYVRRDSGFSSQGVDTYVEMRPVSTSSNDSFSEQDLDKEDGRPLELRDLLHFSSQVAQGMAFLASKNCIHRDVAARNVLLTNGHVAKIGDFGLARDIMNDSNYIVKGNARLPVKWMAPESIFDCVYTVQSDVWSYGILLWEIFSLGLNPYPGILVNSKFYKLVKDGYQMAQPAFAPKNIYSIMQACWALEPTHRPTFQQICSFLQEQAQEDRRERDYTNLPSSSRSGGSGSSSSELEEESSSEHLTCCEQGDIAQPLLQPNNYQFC
T3 sequence (P10721 589-937 limits assumed): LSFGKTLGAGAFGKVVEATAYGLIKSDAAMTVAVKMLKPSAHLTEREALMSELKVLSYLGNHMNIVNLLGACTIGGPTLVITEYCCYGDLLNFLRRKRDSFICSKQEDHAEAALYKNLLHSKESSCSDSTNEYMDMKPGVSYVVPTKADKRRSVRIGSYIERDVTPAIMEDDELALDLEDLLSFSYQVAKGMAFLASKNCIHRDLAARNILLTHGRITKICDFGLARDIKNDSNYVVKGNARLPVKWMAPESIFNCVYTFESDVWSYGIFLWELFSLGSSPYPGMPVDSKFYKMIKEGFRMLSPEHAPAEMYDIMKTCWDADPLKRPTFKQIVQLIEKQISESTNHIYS

Take `COc1ccc(-c2cc(Oc3ccc4nc(N[C@@H]5CCCC[C@H]5O)sc4c3)ccn2)cn1` [Cmpd 170, (1R,2R)-2-(6-(6'-methoxy-2,3'-bipyridin-4-yloxy)benzo[d]thiazol-2-ylamino)cyclohexanol]: the inhibition at 1 µM in assay [1] (compounds of Table 3) is 96%; in assay [2] (compounds of Table 3), 100%; on kinase domain of cKIT (compounds of Table 3), 28%; at kinase domain of PDGFRβ (compounds of Table 3), 23%; in assay [3] (compounds of Table 3) it was 100%.
Regarding `Cc1nc(-c2cc(Oc3ccc4nc(N[C@@H](C)C5CCCCC5)sc4c3)ccn2)[nH]c1C` [Example 269, (S)-N-(1-cyclohexylethyl)-6-(2-(4,5-dimethyl-1H-imidazol-2-yl)pyridin-4-yloxy)benzo[d]thiazol-2-amine], the inhibition at 1 µM in assay [1] (compounds of Table 3) is 85%; in assay [2] (compounds of Table 3), 100%; on kinase domain of cKIT (compounds of Table 3), 18%; at kinase domain of PDGFRβ (compounds of Table 3), 13%; in assay [3] (compounds of Table 3), 75%.
As to “4-[2-(2-Chloro- benzylamino)-benzooxazol- 6-yloxy]-pyridin-2- carboxylic acid methylamide [Compound 8]”, the pCSF1R percent inhibition in assay [1] (compounds of Table 4) is given as 98%. Besides, in assay [2] (compounds of Table 4), the CSF-1R percent inhibition is given as 100%. At kinase domain of cKIT (compounds of Table 4), this compound came in with a cKit percent inhibition of 25%. The PDGFRβ percent inhibition at kinase domain of PDGFRβ (compounds of Table 4) is 35%. For the same compound, in assay [3] (compounds of Table 4), the “M-NFS-60 CP percent inhibition” value worked out at 100%.
For the compound `CNC(=O)c1cc(Oc2ccc3nc(NCc4cccc5c4OCCO5)oc3c2)ccn1` [Compound 65, 4-{2-[(2,3-Dihydro-benzo-[1,4]dioxin-5-ylmethyl)-amino]-benzooxazol-6-yloxy}-pyridine-2-carboxylic acid methylamide], the inhibition at 1 µM was found to be 97% in assay [1] (HEK293H cells); 99% in assay [2]; 98% on kinase domain of cKIT; 38% on kinase domain of PDGFRβ; 100% in assay [3] (MNFS60 cells).
